Reference: patent US7713971B2, “1,2,4-triazine derivatives, preparation and use thereof in human therapy” (Pierre Fabre Medicament, priority 2005, dated 2010)
Where two headings read alike, the source gives them in different places.

Key:
[1] = molecular target: T1, human PPARγ (Homo sapiens, UniProt P37231); assay: Reporter gene transactivation, hPPAR-GAL4 gamma; type: cell-based; details: transfected Cos-7 cells, Gal-4 luciferase reporter, 24 hours treatment
T1 construct: expressed in transfected cells; host or cells: Cos-7 cells (ATCC, CRL-1651)
T1 sequence (P37231 238-503 limits assumed): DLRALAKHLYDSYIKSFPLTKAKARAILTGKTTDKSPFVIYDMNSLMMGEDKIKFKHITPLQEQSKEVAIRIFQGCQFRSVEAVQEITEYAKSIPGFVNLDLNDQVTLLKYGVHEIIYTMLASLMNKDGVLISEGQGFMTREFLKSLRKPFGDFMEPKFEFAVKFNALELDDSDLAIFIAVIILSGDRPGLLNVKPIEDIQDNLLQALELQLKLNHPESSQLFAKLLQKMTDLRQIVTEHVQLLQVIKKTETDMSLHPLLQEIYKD

[2] = molecular target: T2, human PPARα (Homo sapiens, UniProt Q07869); assay: Reporter gene transactivation, hPPAR-GAL4 alpha; type: cell-based; details: transfected Cos-7 cells, Gal-4 luciferase reporter, 24 hours treatment
T2 construct: expressed in transfected cells; host or cells: Cos-7 cells (ATCC, CRL-1651)
T2 sequence (Q07869 239-466 limits assumed): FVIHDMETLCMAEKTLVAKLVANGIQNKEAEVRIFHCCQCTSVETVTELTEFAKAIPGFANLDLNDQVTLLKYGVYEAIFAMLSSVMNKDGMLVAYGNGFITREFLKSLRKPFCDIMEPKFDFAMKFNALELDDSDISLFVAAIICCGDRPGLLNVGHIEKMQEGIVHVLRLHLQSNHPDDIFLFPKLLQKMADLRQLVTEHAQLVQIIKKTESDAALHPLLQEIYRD

[3] = tested on: insulin-resistant male rat (Ico: ZUCKER-fa/fa); assay: Normalization of metabolic parameters (cholesterol, plasma triglycerides) in insulin-resistant rat; type: in vivo; details: oral route, once per day for four days, Zucker fa/fa rat unfed 16-18 hours; for change in vivo at 2.5 mg/kg / change in vivo at 10 mg/kg: 96 h
Protocol: Normalization of metabolic parameters (cholesterol, plasma triglycerides) in an insulin-resistant male rat (Ico: ZUCKER-fa/fa), unfed for 16-18 hours, after treatment by oral route, once per day for four days, with the compounds to be evaluated or their administration vehicle.
These metabolic parameters are measured by spectrophotometry at the beginning and the end of each animal's treatment.

[4] = at 10 mg/kg, read-out: Plasma cholesterol
[5] = at 10 mg/kg, read-out: Plasma triglycerides

SMILES | EC50 [1] [µM] | EC50 [2] [µM] | also measured
CCCCCCCn1nc(NCCCCc2cccc(SC(C)(C)C(=O)OCC)c2)c(=O)n(C)c1=O [Example 94, Ethyl 2-{3-[4-(2-heptyl-4-methyl-3,5-dioxo-2,3,4,5-tetrahydro-[1,2,4]triazin-6-ylamino)-butyl]-phenylsulfanyl}-2-methyl-propionate] | 3 to 10 | 3 to 10 | 
CCCCCCCn1c(=O)c(OCCCc2cccc(OC(C)(C)C(=O)OCC)c2)nn(C)c1=O [Example 7, Ethyl 2-{3-[3-(4-heptyl-2-methyl-3,5-dioxo-2,3,4,5-tetrahydro-[1,2,4]triazin-6-yloxy)-propyl]-phenoxy}-2-methyl-propionate] | 1 to 3 | 0.3 to 1 | 
CCOC(=O)C(C)(C)Oc1ccc(OCCCNc2nn(CCCC(F)(F)F)c(=O)n(C)c2=O)cc1 [Example 44, Ethyl 2-methyl-2-(4-{3-[4-methyl-3,5-dioxo-2-(4,4,4-trifluoro-butyl)-2,3,4,5-tetrahydro-[1,2,4]triazin-6-ylamino]-propoxy}-phenoxy)-propionate] | 3 to 10 | > 10 | 
CCCCCCCn1c(=O)c(NCCCCc2cccc(OC(C)(C)C(=O)OCC)c2)nn(C/C=C/C(=O)OCC)c1=O [Example 87, Ethyl 4-(6-{4-[3-(1-ethoxycarbonyl-1-methyl-ethoxy)-phenyl]-butylamino}-4-heptyl-3,5-dioxo-4,5-dihydro-3H-[1,2,4]triazin-2-yl)-but-2-enonate] | 0.1 to 0.3 | ~0.3 | 
CCCCCCCn1nc(OCCCc2cccc(OC(C)(C)C(=O)OCC)c2)c(=O)n(C)c1=O [Example 5, Ethyl 2-{3-[3-(2-heptyl-4-methyl-3,5-dioxo-2,3,4,5-tetrahydro-[1,2,4]triazin-6-yloxy)-propyl]-phenoxy}-2-methyl-propionate] | ~10 | ~3 | 
CCCCCCCn1nc(NCCc2cccc(OC(C)(C)C(=O)OCC)c2)c(=O)n(C)c1=O [Example 57, Ethyl 2-{3-[2-(2-heptyl-4-methyl-3,5-dioxo-2,3,4,5-tetrahydro-[1,2,4]triazin-6-ylamino)-ethyl]-phenoxy}-2-methyl-propionate] | 1 to 3 | ~3 | 
CCCCCCCn1c(=O)c(OCCCCCc2cccc(OC(C)(C)C(=O)OCC)c2)nn(Cc2ccccc2)c1=O [Example 19, Ethyl 2-{3-[5-(2-benzyl-4-heptyl-3,5-dioxo-2,3,4,5-tetrahydro-[1,2,4]triazin-6-yloxy)-pentyl]-phenoxy}-2-methyl-propionate] | 3 to 10 | ~3 | 
CCCCCCCn1c(=O)c(NCCc2cccc(OC(C)(C)C(=O)OCC)c2)nn(C)c1=O [Example 59, Ethyl 2-{3-[2-(4-heptyl-2-methyl-3,5-dioxo-2,3,4,5-tetrahydro-[1,2,4]triazin-6-ylamino)-ethyl]-phenoxy}-2-methyl-propionate] |  | 1 to 3 | change in vivo at 2.5 mg/kg ([3]; read-out: Plasma cholesterol): -37%; change in vivo at 2.5 mg/kg ([3]; read-out: Plasma triglycerides): -13%
CCOC(=O)C(C)(C)Oc1ccc(OCCCNc2nn(C)c(=O)n(CCCC(F)(F)F)c2=O)cc1 [Example 46, Ethyl 2-methyl-2-(4-{3-[2-methyl-3,5-dioxo-4-(4,4,4-trifluoro-butyl)-2,3,4,5-tetrahydro-[1,2,4]triazin-6-ylamino]-propoxy}-phenoxy)-propionate] |  | 0.3 to 1 | change in vivo at 10 mg/kg [3, 4]: -13%; change in vivo at 10 mg/kg [3, 5]: -32%
CCOC(=O)C(C)(C)Oc1ccc(CCCCOc2nn(C)c(=O)n(CCCC(F)(F)F)c2=O)cc1 [Example 30, Ethyl 2-methyl-2-(4-{4-[2-methyl-3,5-dioxo-4-(4,4,4-trifluoro-butyl)-2,3,4,5-tetrahydro-[1,2,4]triazin-6-yloxy]-butyl}-phenoxy)-propionate] | > 10 | 0.03 to 0.1 | 
CCOC(=O)C(C)(C)Sc1cccc(CCCCNc2nn(CCCC(F)(F)F)c(=O)n(Cc3ccccc3)c2=O)c1 [Example 100, Ethyl 2-(3-{4-[4-Benzyl-3,5-dioxo-2-(4,4,4-trifluoro-butyl)-2,3,4,5-tetrahydro-[1,2,4]triazin-6-ylamino]-butyl}-phenylsulfanyl)-2-methyl-propionate] | > 10 | 1 to 3 | 
CCCCCCCn1c(=O)c(NCCCc2cccc(OC(C)(C)C(=O)OCC)c2)nn(C)c1=O [Example 67, Ethyl 2-{3-[3-(4-heptyl-2-methyl-3,5-dioxo-2,3,4,5-tetrahydro-[1,2,4]triazin-6-ylamino)-propyl]-phenoxy}-2-methyl-propionate] |  | ~1 | change in vivo at 10 mg/kg [3, 4]: -14%; change in vivo at 10 mg/kg [3, 5]: -23%
CCCCCCCn1nc(NCCCc2cccc(OC(C)(C)C(=O)OCC)c2)c(=O)n(C)c1=O [Example 64, Ethyl 2-{3-[3-(2-heptyl-4-methyl-3,5-dioxo-2,3,4,5-tetrahydro-[1,2,4]triazin-6-ylamino)-propyl]-phenoxy}-2-methyl-propionate] | 3 to 10 | > 10 | 
CCCCn1c(=O)c(OCCCCCc2cccc(OC(C)(C)C(=O)O)c2)nn(C)c1=O [Example 12, 2-{3-[5-(4-Butyl-2-methyl-3,5-dioxo-2,3,4,5-tetrahydro-[1,2,4]triazin-6-yloxy)-pentyl]-phenoxy}-2-methyl-propionic Acid] | 1 to 3 | ~0.03 | 
Cn1c(=O)c(NCCc2ccc(SC(C)(C)C(=O)O)cc2)nn(CCCC(F)(F)F)c1=O [Example 118, 2-Methyl-2-(4-{2-[4-methyl-3,5-dioxo-2-(4,4,4-trifluoro-butyl)-2,3,4,5-tetrahydro-[1,2,4]triazin-6-ylamino]-ethyl}-phenylsulfanyl)-propionic Acid] | ~10 | 1 to 3 | 
CCOC(=O)C(C)(C)Oc1cccc(CCCCCOc2nn(CCCC(F)(F)F)c(=O)n(C)c2=O)c1 [Example 9, Ethyl 2-methyl-2-(3-{5-[4-methyl-3,5-dioxo-2-(4,4,4-trifluoro-butyl)-2,3,4,5-tetrahydro-[1,2,4]triazin-6-yloxy]-pentyl}-phenoxy)-propionate] | ~10 | 3 to 10 | 
CCCCCCCn1nc(OCCOc2ccc(SC(C)(C)C(=O)OCC)cc2)c(=O)n(C)c1=O [Example 38, Ethyl 2-{4-[2-(2-heptyl-4-methyl-3,5-dioxo-2,3,4,5-tetrahydro-[1,2,4]triazin-6-yloxy)-ethoxy]-phenylsulfanyl}-2-methyl-propionate] | > 10 | > 10 | 
CCCCCCCn1nc(OCCCOc2cccc(OC(C)(C)C(=O)OCC)c2)c(=O)n(C)c1=O [Example 33, Ethyl 2-{3-[3-(2-heptyl-4-methyl-3,5-dioxo-2,3,4,5-tetrahydro-[1,2,4]triazin-6-yloxy)-propoxy]-phenoxy}-2-methyl-propionate] | ~3 | ~3 | 
CCCCCCCn1c(=O)c(OCCCc2cccc(OC(C)(C)C(=O)OCC)c2)nn(CCCC(F)(F)F)c1=O [Example 8, Ethyl 2-(3-{3-[4-heptyl-3,5-dioxo-2-(4,4,4-trifluoro-butyl)-2,3,4,5-tetrahydro-[1,2,4]triazin-6-yloxy]-propyl}-phenoxy)-2-methyl-propionate] | 3 to 10 | ~0.3 | 
CCCCCCCN(CCCOc1ccc(SC(C)(C)C(=O)OCC)cc1)c1nn(C)c(=O)n(C)c1=O [Example 53, Ethyl 2-(4-{3-[(2,4-Dimethyl-3,5-dioxo-2,3,4,5-tetrahydro-[1,2,4]triazin-6-yl)-heptyl-amino]-propoxy}-phenylsulfanyl)-2-methyl-propionate] |  | 1 to 3 | change in vivo at 2.5 mg/kg ([3]; read-out: Plasma cholesterol): -7%; change in vivo at 10 mg/kg [3, 4]: -28%; Plasma triglycerides ([3]; at 10 mg/kg): inactive at 10
CCCCCCCn1c(=O)c(NCCCCc2cccc(SC(C)(C)C(=O)OCC)c2)nn(CCCC(F)(F)F)c1=O [Example 97, Ethyl 2-(3-{4-[4-heptyl-3,5-dioxo-2-(4,4,4-trifluoro-butyl)-2,3,4,5-tetrahydro-[1,2,4]triazin-6-ylamino]-butyl}-phenylsulfanyl)-2-methyl-propionate] |  | 1 to 3 | 
CCCCCCCn1nc(OCCc2ccc(OC(C)(C)C(=O)OCC)cc2)c(=O)n(C)c1=O [Example 25, Ethyl 2-{4-[2-(2-heptyl-4-methyl-3,5-dioxo-2,3,4,5-tetrahydro-[1,2,4]triazin-6-yloxy)-ethyl]-phenoxy}-2-methyl-propionate] | > 10 |  | 
CCOC(=O)C(C)(C)Oc1cccc(CCCOc2nn(C)c(=O)n(CCCC(F)(F)F)c2=O)c1 [Example 6, Ethyl 2-methyl-2-(3-{3-[2-methyl-3,5-dioxo-4-(4,4,4-trifluoro-butyl)-2,3,4,5-tetrahydro-[1,2,4]triazin-6-yloxy]-propyl}-phenoxy)-propionate] |  | ~0.3 | 
